Measured values: patent US20180320217A1, “METHODS FOR SAMPLING AND MEASURING ORAL LAVAGE PROTEINS” (The Procter & Gamble Company, priority 2017, published 2018)
“And” between values parts separate entries of the source, which are not always exact repeats. Equal entries are not always repeated. “Also recorded” adds a separate entry of the source.

What was measured:
[1] = biological target: T1, Malate dehydrogenase (Sus scrofa, UniProt P00346); test: Formation of formazan dyes: Malate dehydrogenase and 1-Methoxy PMS, absence of malate (TABLE 17); type: biochemical, pig heart; parameters: L-malate dehydrogenase (pig heart); purchased Sigma-Aldrich 10127248001 / 10127914001
T1 sequence (P00346 25-338): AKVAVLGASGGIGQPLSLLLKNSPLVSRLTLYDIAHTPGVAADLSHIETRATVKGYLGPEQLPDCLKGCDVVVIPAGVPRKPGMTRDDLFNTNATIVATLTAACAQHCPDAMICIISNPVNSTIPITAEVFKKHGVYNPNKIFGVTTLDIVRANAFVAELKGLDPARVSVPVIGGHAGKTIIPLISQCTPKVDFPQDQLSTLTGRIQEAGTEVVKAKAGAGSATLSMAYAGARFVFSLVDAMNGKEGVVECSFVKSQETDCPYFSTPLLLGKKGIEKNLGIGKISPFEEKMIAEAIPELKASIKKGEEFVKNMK

[2] = system: Malate dehydrogenase and diaphorase; test: Formation of formazan dyes: Malate dehydrogenase, diaphorase and malate (TABLE 10); type: biochemical, pig heart
[3] = system: diaphorase; test: Formation of formazan dyes: only diaphorase and malate (TABLE 14); type: biochemical, Clostridium kluyveri; details: mean of three experiments
[4] = Formation of formazan dyes: NADH and 1-methoxy PMS, absence of malate (TABLE 15); type: biochemical; details: disodium salt
[5] = system: oral lavage; test: Formation of formazan dyes: oral lavage and diaphorase, not malate (TABLE 11); type: biochemical, human
[6] = Formation of formazan dyes: control buffer and 1-Methoxy PMS, absence of malate (TABLE 21); type: biochemical; details: disodium salt
[7] = system: diaphorase; test: Formation of formazan dyes: NADH, diaphorase and malate (TABLE 8); type: biochemical, Clostridium kluyveri; details: NADH, diaphorase and malate
[8] = system: oral lavage; test: Formation of formazan dyes: oral lavage and 1-Methoxy PMS, absence of malate (TABLE 19); type: biochemical, human; details: disodium salt
[9] = system: Malate dehydrogenase and diaphorase; test: Formation of formazan dyes: Malate dehydrogenase and diaphorase, absence of malate (TABLE 9); type: biochemical, pig heart
[10] = system: diaphorase; test: Effect of concentrations of tetrazolium salts on formation of formazan dyes (FIGS. 4A-4G); type: biochemical; details: 15 mM NADH+H, 20 μg diaphorase, pH 7.5; FIGS. 4A to 4G
Procedure: On the idea that higher concentrations of tetrazolium salts in the assay buffer would likely result in more formazan dyes in the reaction, various concentrations of tetrazolium salts were added to a reaction buffer and the formation of formazan dyes were measured at 0, 30 and 60 minutes. […] The reactions were performed at room temperature. Absorbance was taken at 0, 30 and 60 minutes.

[11] = Formation of formazan dyes: control buffer, malate and 1-Methoxy PMS (TABLE 22); type: biochemical
[12] = system: diaphorase; test: Formation of formazan dyes: NADH and diaphorase, absence of malate (TABLE 7); type: biochemical, Clostridium kluyveri; details: NADH and diaphorase, absence of malate
[13] = Formation of formazan dyes: NADH, malate and 1-methoxy PMS (TABLE 16); type: biochemical
[14] = system: oral lavage; test: Formation of formazan dyes: oral lavage, malate and diaphorase (TABLE 12); type: biochemical, human; details: oral lavage, malate and diaphorase
[15] = system: diaphorase; test: Formation of formazan dyes: only diaphorase, not malate (TABLE 13); type: biochemical, Clostridium kluyveri; details: mean of three experiments

Structure (SMILES): COc1cc(-c2ccc(-[n+]3nc(-c4ccc(C(=O)N(CCS(=O)(=O)[O-])CCS(=O)(=O)[O-])cc4)nn3-c3nc4ccccc4s3)c(OC)c2)ccc1-[n+]1nc(-c2ccc(C(=O)N(CCS(=O)(=O)[O-])CCS(=O)(=O)[O-])cc2)nn1-c1nc2ccccc2s1.[Na+].[Na+] [WST-5, 2,2′-Dibenzothiazolyl-5,5′-bis[4-di(2-sulfoethyl)carbamoylphenyl]-3,3′-(3,3′-dimethoxy 4,4′-biphenylene)ditetrazolium, disodium salt]
- reduction by malate dehydrogenase alone [1]: did not catalyze the reduction
- Absorbance, formation of formazan dyes (Means) ([1]; disodium salt): 0.24 and 0.37 and 0.41 and 0.43
- Formation of formazan dyes, absorbance, Means 0 h ([2]; Malate dehydrogenase, diaphorase and malate, 0 h): 0.75
- Formation of formazan dyes, absorbance, Means 1 h ([2]; Malate dehydrogenase, diaphorase and malate, 1 h): 1.32
- Formation of formazan dyes, absorbance, Means 2 h ([2]; Malate dehydrogenase, diaphorase and malate, 2 h): 1.67
- Formation of formazan dyes, absorbance, Means 3 h ([2]; Malate dehydrogenase, diaphorase and malate, 3 h): 1.93
- Formation of formazan dyes, absorbance, Means 4 h ([2]; Malate dehydrogenase, diaphorase and malate, 4 h): 2.04
- Formation of formazan dyes, absorbance, Means 6 h ([2]; Malate dehydrogenase, diaphorase and malate, 6 h): 2.20
- Formation of formazan dyes, absorbance, Means 8 h ([2]; Malate dehydrogenase, diaphorase and malate, 8 h): 2.34
- Formation of formazan dyes, absorbance, Means 10 h ([2]; Malate dehydrogenase, diaphorase and malate, 10 h): 2.49
- Formation of formazan dyes, absorbance, Means 12 h ([2]; Malate dehydrogenase, diaphorase and malate, 12 h): 2.60
- conversion to reduced formazan dyes ([2]; malate dehydrogenase, diaphorase and malate (TABLE 10), disodium salt): converted to reduced formazan dyes in a time-dependent fashion; also recorded: able to catalyze the reduction
- Absorbance, formation of formazan dyes (Means) ([3]; 0 h): 0.09
- Absorbance, formation of formazan dyes (Means) ([3]; 1 h): 0.12
- Absorbance, formation of formazan dyes (Means) ([3]; 2 h): 0.15
- Absorbance, formation of formazan dyes (Means) ([3]; 3 h): 0.18
- Absorbance, formation of formazan dyes (Means) ([3]; 4 h): 0.21
- Absorbance, formation of formazan dyes (Means) ([3]; 6 h): 0.23
- Absorbance, formation of formazan dyes (Means) ([3]; 8 h): 0.26
- Absorbance, formation of formazan dyes (Means) ([3]; 10 h): 0.29
- Absorbance, formation of formazan dyes (Means) ([3]; 12 h): 0.32
- Absorbance, formation of formazan dyes (Means) [4]: 2.12 and 2.14 and 2.18 and 2.22
- Formation of formazan dyes, absorbance, Means 0 h ([5]; oral lavage and diaphorase, not malate, 0 h): 0.60
- Formation of formazan dyes, absorbance, Means 1 h ([5]; oral lavage and diaphorase, not malate, 1 h): 0.72
- Formation of formazan dyes, absorbance, Means 2 h ([5]; oral lavage and diaphorase, not malate, 2 h): 0.77
- Formation of formazan dyes, absorbance, Means 3 h ([5]; oral lavage and diaphorase, not malate, 3 h): 0.80
- Formation of formazan dyes, absorbance, Means 4 h ([5]; oral lavage and diaphorase, not malate, 4 h): 0.78
- Formation of formazan dyes, absorbance, Means 6 h ([5]; oral lavage and diaphorase, not malate, 6 h): 0.83
- Formation of formazan dyes, absorbance, Means 8 h ([5]; oral lavage and diaphorase, not malate, 8 h): 0.84
- Formation of formazan dyes, absorbance, Means 10 h ([5]; oral lavage and diaphorase, not malate, 10 h): 0.81
- Formation of formazan dyes, absorbance, Means 12 h ([5]; oral lavage and diaphorase, not malate, 12 h): 0.80
- reduction to formazan dyes by pooled oral lavage ([5]; pooled oral lavage of high bleeder group, diaphorase, no added malate (TABLE 11)): partially reduced to formazan dyes
- Absorbance, formation of formazan dyes (Means) [6]: 0.33 and 0.45 and 0.48 and 0.55
- Formation of formazan dyes, absorbance, Means 0 h ([7]; 0 h): 2.62
- Formation of formazan dyes, absorbance, Means 1 h ([7]; 1 h): 2.48
- Formation of formazan dyes, absorbance, Means 2 h ([7]; 2 h): 2.44
- Formation of formazan dyes, absorbance, Means 3 h ([7]; 3 h): 2.41
- Formation of formazan dyes, absorbance, Means 4 h ([7]; 4 h): 2.45
- Formation of formazan dyes, absorbance, Means 6 h ([7]; 6 h): 2.41
- Formation of formazan dyes, absorbance, Means 8 h ([7]; 8 h): 2.36
- Formation of formazan dyes, absorbance, Means 10 h ([7]; 10 h): 2.31
- Formation of formazan dyes, absorbance, Means 12 h ([7]; 12 h): 2.26
- Absorbance, formation of formazan dyes (Means) [8]: 0.77 and 1.11 and 1.29 and 1.39
- Formation of formazan dyes, absorbance, Means 0 h ([9]; Malate dehydrogenase and diaphorase, absence of malate, 0 h): 0.83
- Formation of formazan dyes, absorbance, Means 1 h ([9]; Malate dehydrogenase and diaphorase, absence of malate, 1 h): 1.35
- Formation of formazan dyes, absorbance, Means 2 h ([9]; Malate dehydrogenase and diaphorase, absence of malate, 2 h): 1.58
- Formation of formazan dyes, absorbance, Means 3 h ([9]; Malate dehydrogenase and diaphorase, absence of malate, 3 h): 1.74
- Formation of formazan dyes, absorbance, Means 4 h ([9]; Malate dehydrogenase and diaphorase, absence of malate, 4 h): 1.86
- Formation of formazan dyes, absorbance, Means 6 h ([9]; Malate dehydrogenase and diaphorase, absence of malate, 6 h): 2.06
- Formation of formazan dyes, absorbance, Means 8 h ([9]; Malate dehydrogenase and diaphorase, absence of malate, 8 h): 2.24
- Formation of formazan dyes, absorbance, Means 10 h ([9]; Malate dehydrogenase and diaphorase, absence of malate, 10 h): 2.33
- Formation of formazan dyes, absorbance, Means 12 h ([9]; Malate dehydrogenase and diaphorase, absence of malate, 12 h): 2.33
- reduction of tetrazolium dye in the absence of substrate malate ([9]; malate dehydrogenase and diaphorase (TABLE 9)): partially reduced
- concentration of tetrazolium salt at which absorbance reached peaks [10]: 1 mM
- Means absorbance 0 h [11]: 0.13
- Means absorbance 1 h [11]: 0.15
- Means absorbance 2 h [11]: 0.16
- Means absorbance 3 h [11]: 0.16
- Formation of formazan dyes, absorbance, Means 0 h ([12]; 0 h): 2.81
- Formation of formazan dyes, absorbance, Means 1 h ([12]; 1 h): 2.81
- Formation of formazan dyes, absorbance, Means 2 h ([12]; 2 h): 2.79
- Formation of formazan dyes, absorbance, Means 3 h ([12]; 3 h): 2.78
- Formation of formazan dyes, absorbance, Means 4 h ([12]; 4 h): 2.86
- Formation of formazan dyes, absorbance, Means 6 h ([12]; 6 h): 2.83
- Formation of formazan dyes, absorbance, Means 8 h ([12]; 8 h): 2.77
- Formation of formazan dyes, absorbance, Means 10 h ([12]; 10 h): 2.74
- Formation of formazan dyes, absorbance, Means 12 h ([12]; 12 h): 2.66
- Absorbance, formation of formazan dyes (Means) [13]: 1.84
- Formation of formazan dyes, absorbance, Means 0 h ([14]; 0 h): 0.57
- Formation of formazan dyes, absorbance, Means 1 h ([14]; 1 h): 0.74
- Formation of formazan dyes, absorbance, Means 2 h ([14]; 2 h): 0.80
- Formation of formazan dyes, absorbance, Means 3 h ([14]; 3 h): 0.75
- Formation of formazan dyes, absorbance, Means 4 h ([14]; 4 h): 0.67
- Formation of formazan dyes, absorbance, Means 6 h ([14]; 6 h): 0.85
- Formation of formazan dyes, absorbance, Means 8 h ([14]; 8 h): 0.90
- Formation of formazan dyes, absorbance, Means 10 h ([14]; 10 h): 1.02
- Formation of formazan dyes, absorbance, Means 12 h ([14]; 12 h): 1.08
- Absorbance, formation of formazan dyes (Means) ([15]; 0 h): 0.25
- Absorbance, formation of formazan dyes (Means) ([15]; 1 h): 0.30
- Absorbance, formation of formazan dyes (Means) ([15]; 2 h): 0.35
- Absorbance, formation of formazan dyes (Means) ([15]; 3 h): 0.32
- Absorbance, formation of formazan dyes (Means) ([15]; 4 h): 0.32
- Absorbance, formation of formazan dyes (Means) ([15]; 6 h): 0.38
- Absorbance, formation of formazan dyes (Means) ([15]; 8 h): 0.41
- Absorbance, formation of formazan dyes (Means) ([15]; 10 h): 0.38
- Absorbance, formation of formazan dyes (Means) ([15]; 12 h): 0.36
